Measurements from ChEMBL document CHEMBL1201862, “PubChem BioAssay data set” (2004).
Calls of active or inactive are those of the source.

Columns and labels:
[1] = target: Intestinal-type alkaline phosphatase (Homo sapiens, UniProt P09923); assay: Dose Response confirmation of uHTS hits from a small molecule inhibitors of human intestinal alkaline phosphatase via a luminescent assay. [Related pubchem assays (depositor defined):AID2544, AID2574]; format: functional
[2] = Vero E6 cell cytotoxicity, dose response, cytotoxicity control for non-replicating M. tuberculosis project, secondary assay (AID 492998); format: functional, VeroE6; settings: Vero C1008
[3] = THP-1 cell cytotoxicity, dose response, cytotoxicity control for non-replicating M. tuberculosis project (AID 489025); format: functional
[4] = Luminescence Cell-Based Dose Retest to Confirm Inhibitors of Cancer Stem Cells. [Related pubchem assays (depositor defined):AID2717, AID2721]; format: functional; settings: Homo sapiens
[5] = HepG2 cell cytotoxicity, dose response, cytotoxicity control for non-replicating M. tuberculosis project (AID 489018); format: functional; settings: Mycobacterium tuberculosis
cells [6] = format: functional
[7] = target: Neurotensin receptor type 1 (Homo sapiens, UniProt P30989); format: functional;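 note: Image-based confirmatory dose-response assay measuring agonist activity at NTR1; NTR1-expressing U2OS osteosarcoma cells imaged for beta-arrestin GFP spot formation; agonist potency where compounds increase beta-arrestin recruitment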
[8] = target: T1, Heat shock factor protein 1 (Mus musculus, UniProt P38532); assay: enhancement of HSF1-driven luciferase signal – cell-based, NIH3T3, luminescence, dose retest, confirmation (AID 435004); format: functional;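 note: stress induced by proteasome inhibitor MG132 added 30 min after compound; luciferase reporter driven by HSF1 response element in NIH3T3 cells; actives raise luminescence as potentiators of the MG132 stress response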
T1 sequence (P38532 whole entry): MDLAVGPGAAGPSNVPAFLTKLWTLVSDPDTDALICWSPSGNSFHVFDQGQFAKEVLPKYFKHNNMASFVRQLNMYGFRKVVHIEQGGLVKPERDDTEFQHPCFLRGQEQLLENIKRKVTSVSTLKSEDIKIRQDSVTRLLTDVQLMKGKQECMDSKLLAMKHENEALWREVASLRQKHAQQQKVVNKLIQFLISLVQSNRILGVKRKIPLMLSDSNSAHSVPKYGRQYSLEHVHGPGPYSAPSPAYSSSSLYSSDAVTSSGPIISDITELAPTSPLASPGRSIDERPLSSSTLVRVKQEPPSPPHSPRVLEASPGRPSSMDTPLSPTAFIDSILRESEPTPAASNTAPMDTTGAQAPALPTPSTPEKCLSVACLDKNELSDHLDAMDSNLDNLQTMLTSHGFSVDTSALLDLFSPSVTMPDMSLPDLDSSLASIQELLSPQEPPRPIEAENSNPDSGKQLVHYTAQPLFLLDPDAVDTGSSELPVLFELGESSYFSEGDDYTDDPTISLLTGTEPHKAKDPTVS

SUMO-activating enzyme [9] = target: T2, SUMO-activating enzyme (Homo sapiens, UniProt Q9UBT2); assay: blockers of SAE1/SAE2–UBC9 SUMO transfer – biochemical, HTRF, uHTS, primary screen (AID 2006); format: protein-complex assay
[10] = target: Induced myeloid leukemia cell differentiation protein Mcl-1 (Homo sapiens, UniProt Q07820); format: functional
SUMO-activating enzyme [11] = target: T2, SUMO-activating enzyme; assay: blockers of UBC9-mediated SUMO conjugation – biochemical, AlphaScreen, SUMOylation inhibitor project, confirmation (AID 2018); format: functional
Procathepsin L = Procathepsin L (Homo sapiens, UniProt P07711)
Aspartyl aminopeptidase = Aspartyl aminopeptidase (Plasmodium falciparum 3D7, UniProt Q8I2J3)
[12] = target: T3, Small ubiquitin-related modifier 1 (Homo sapiens, UniProt P63165); assay: SUMO1 protein-protein binding blockers, potency – biochemical, FRET, dose response (AID 624383); format: functional; settings: read-out: IC50_Mean
ORF 73 = ORF 73 (Human herpesvirus 8, UniProt O40947); assay: KSHV LANA DNA-binding disruption – biochemical, fluorescence polarization, cherry-picked samples, dose response (AID 504725); parameters: species or system Human gammaherpesvirus 8;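 note: fluorescence polarization of a labeled DNA duplex reporting LANA DNA binding; potency is for inhibitors that block LANA binding to the DNA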
[13] = target: T4, Rac GTPase-activating protein 1 (Homo sapiens, UniProt Q9H0H5); assay: blockers of MgcRacGAP-driven Rac1 GTP hydrolysis – biochemical, ADP Hunter fluorescence, primary and confirmatory, confirmation (AID 624330); format: functional
T4 sequence (Q9H0H5 whole entry): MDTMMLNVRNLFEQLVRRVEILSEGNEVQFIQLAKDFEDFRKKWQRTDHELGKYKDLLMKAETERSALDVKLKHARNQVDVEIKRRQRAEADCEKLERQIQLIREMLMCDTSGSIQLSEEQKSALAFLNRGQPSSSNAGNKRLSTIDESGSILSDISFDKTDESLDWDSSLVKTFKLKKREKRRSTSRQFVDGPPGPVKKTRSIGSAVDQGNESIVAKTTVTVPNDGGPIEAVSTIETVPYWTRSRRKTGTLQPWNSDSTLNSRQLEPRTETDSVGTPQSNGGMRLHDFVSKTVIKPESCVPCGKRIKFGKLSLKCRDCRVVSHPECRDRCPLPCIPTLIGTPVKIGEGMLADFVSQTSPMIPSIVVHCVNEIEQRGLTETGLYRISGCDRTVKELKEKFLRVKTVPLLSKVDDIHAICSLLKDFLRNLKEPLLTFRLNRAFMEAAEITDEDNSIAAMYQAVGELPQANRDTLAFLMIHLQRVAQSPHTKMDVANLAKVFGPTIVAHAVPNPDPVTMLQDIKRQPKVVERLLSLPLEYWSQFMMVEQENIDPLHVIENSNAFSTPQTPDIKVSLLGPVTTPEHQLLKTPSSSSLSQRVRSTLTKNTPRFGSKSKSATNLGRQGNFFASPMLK

Caspase-6 = target: T5, Caspase-6 (Homo sapiens, UniProt P55212); assay: inhibition of CASP6 peptide cleavage – biochemical, VEID-R110 fluorescence, cherry-pick, dose response (AID 720632)
T5 sequence (P55212 whole entry): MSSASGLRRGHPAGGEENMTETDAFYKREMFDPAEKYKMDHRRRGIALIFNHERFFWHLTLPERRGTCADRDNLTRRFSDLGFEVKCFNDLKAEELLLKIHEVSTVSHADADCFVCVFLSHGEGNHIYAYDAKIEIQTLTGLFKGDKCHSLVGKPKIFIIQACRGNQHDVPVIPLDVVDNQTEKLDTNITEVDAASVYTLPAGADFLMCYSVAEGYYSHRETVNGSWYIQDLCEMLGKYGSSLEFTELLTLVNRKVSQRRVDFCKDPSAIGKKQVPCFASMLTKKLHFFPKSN

Genome polyprotein = Genome polyprotein (dengue virus type 2, UniProt P29990); assay: flavivirus cap methylation enzyme inhibition – biochemical, confirmation dose response, primary screen (AID 588689); format: functional
[14] = target: T3, Small ubiquitin-related modifier 1; assay: SUMO1 protein interaction blockers, potency – biochemical, fluorescence polarization, uHTS hits, dose response (AID 624382); format: functional; settings: read-out: IC50_Mean
[15] = luciferase reporter signal reduction – luminescence, H4-C neuroglioblastoma cells, dose response (AID 2458); format: functional, cell-based;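 note: H4 neuroglioblastoma cells stably carrying a luciferase reporter gene fusion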
[16] = alpha-synuclein stem-loop translation blockers – luminescence, H4 neuroglioblastoma cells, dose confirmation, confirmation (AID 2454); format: functional, cell-based;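 note: H4 neuroglioblastoma cells carrying an alpha-synuclein 5'UTR luciferase reporter; potency for inhibition of the luciferase signal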
[17] = luciferase reporter signal suppression in cells – H4 neuroglioma cells, luminescence, dose response (AID 1990); format: functional, cell-based
[18] = Luminescence Cell-Based Dose Response HTS to Identify Inhibitors of 5'UTR Stem-Loop Driven Prion Protein mRNA Translation in H4 Neuroglioblastoma Cells. [Related pubchem assays: 1827 (Project Summary), 1813 (Primary HTS)]; format: functional
[19] = target: T6, Microphthalmia-associated transcription factor (Homo sapiens, UniProt O75030); assay: reducers of TRPM1 reporter luminescence, concentration series – cell-based, SK-MEL-5, cherry-picked, set 3, MITF inhibitor project, dose response (AID 493073); format: functional;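 note: SK-MEL-5 melanoma cells with luciferase driven by the MITF target TRPM1 promoter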
T6 sequence (O75030 whole entry): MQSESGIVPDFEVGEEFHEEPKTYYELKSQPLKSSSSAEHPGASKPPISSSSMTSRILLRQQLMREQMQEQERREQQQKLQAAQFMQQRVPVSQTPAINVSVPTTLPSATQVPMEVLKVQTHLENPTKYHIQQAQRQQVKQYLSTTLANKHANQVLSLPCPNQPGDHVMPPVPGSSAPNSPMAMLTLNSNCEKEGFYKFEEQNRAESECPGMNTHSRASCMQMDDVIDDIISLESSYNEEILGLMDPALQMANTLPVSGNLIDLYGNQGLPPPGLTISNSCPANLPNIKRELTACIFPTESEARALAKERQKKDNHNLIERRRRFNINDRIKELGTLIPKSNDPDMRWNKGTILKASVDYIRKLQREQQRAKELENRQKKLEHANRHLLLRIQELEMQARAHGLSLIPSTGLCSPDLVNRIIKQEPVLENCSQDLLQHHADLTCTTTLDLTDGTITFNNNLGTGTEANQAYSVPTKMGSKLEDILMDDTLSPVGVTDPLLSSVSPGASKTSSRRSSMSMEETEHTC

cells [20] = format: functional, cell-based
[21] = target: Melanin-concentrating hormone receptor 1 (Homo sapiens, UniProt Q99705); assay: Fluorescence-based counterscreen for antagonists of the G-protein coupled receptor 7 (GPR7): cell-based high throughput dose response assay to identify antagonists of the melanin-concentrating hormone receptor 1 (MCHR1).; format: functional
[22] = target: T7, Neuropeptides B/W receptor type 1 (Homo sapiens, UniProt P48145); assay: Fluorescence-based dose response cell-based high throughput screening assay to identify antagonists of the G-protein coupled receptor 7 (GPR7). [Related pubchem assays: 1952 (Screening assay (GPR7 antagonists).), 1880 (Summary AID.)]; format: functional
T7 sequence (P48145 whole entry): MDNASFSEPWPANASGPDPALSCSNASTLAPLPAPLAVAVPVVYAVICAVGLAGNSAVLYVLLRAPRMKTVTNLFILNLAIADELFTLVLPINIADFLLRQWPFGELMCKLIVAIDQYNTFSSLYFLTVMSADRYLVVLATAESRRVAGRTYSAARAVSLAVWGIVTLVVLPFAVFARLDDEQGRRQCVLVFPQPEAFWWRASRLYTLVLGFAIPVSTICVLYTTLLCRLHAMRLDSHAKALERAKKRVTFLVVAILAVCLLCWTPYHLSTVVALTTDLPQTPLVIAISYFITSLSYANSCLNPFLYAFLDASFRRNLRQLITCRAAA

T2 sequence (Q9UBE0 whole entry): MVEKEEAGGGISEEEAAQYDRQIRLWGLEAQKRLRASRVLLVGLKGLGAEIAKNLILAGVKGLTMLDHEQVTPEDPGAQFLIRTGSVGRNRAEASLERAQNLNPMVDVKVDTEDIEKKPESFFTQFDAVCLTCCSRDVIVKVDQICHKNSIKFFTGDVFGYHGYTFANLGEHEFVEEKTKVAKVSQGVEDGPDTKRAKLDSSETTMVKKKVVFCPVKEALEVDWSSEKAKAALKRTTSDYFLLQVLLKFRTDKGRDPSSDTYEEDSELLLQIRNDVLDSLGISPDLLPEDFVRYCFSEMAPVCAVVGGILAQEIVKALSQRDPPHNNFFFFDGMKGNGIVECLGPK
T2 sequence (Q9UBT2 whole entry): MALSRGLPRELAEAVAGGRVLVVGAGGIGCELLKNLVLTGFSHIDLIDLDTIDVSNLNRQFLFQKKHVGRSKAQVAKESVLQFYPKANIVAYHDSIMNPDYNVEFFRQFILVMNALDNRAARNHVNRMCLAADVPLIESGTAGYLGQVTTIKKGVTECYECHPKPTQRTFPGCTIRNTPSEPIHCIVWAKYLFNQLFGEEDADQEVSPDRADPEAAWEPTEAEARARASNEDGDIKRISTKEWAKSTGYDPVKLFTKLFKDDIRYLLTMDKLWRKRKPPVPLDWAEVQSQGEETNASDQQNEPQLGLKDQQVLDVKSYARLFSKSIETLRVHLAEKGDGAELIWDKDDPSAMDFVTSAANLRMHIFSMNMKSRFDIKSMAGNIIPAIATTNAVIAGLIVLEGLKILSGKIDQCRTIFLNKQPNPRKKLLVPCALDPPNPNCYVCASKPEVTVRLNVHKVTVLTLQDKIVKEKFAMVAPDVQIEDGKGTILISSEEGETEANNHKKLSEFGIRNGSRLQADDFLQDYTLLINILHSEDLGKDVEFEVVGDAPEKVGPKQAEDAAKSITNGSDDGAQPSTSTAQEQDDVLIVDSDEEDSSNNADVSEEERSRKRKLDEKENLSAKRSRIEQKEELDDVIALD
T3 sequence (P63165 whole entry): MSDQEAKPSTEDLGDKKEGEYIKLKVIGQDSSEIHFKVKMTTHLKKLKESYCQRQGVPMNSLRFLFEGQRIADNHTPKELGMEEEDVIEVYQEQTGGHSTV
Neurotensin receptor type 1, sequence (P30989 whole entry): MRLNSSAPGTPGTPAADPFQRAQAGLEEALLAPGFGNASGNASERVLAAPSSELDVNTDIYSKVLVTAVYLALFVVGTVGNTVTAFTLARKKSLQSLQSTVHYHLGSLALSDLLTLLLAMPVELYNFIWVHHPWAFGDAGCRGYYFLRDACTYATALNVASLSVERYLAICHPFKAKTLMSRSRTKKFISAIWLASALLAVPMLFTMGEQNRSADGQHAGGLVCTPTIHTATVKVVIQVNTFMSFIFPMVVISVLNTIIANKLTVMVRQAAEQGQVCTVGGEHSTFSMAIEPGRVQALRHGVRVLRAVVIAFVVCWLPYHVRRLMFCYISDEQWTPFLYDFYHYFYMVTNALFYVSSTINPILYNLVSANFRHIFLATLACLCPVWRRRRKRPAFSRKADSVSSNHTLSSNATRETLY
Intestinal-type alkaline phosphatase, sequence (P09923 whole entry): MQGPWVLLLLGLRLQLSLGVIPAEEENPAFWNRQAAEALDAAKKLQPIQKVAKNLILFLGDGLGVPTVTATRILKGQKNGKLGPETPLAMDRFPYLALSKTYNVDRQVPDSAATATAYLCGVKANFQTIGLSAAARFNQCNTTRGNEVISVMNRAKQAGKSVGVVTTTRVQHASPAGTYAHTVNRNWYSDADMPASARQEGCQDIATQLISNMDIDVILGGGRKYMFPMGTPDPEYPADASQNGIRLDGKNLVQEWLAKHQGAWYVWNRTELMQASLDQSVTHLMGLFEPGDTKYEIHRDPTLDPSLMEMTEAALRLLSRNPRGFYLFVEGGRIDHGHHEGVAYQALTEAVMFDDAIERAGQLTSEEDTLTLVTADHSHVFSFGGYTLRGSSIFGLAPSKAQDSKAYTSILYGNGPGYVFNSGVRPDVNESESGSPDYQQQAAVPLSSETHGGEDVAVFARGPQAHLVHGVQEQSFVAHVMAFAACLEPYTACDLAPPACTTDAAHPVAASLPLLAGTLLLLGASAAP
Induced myeloid leukemia cell differentiation protein Mcl-1, sequence (Q07820 whole entry): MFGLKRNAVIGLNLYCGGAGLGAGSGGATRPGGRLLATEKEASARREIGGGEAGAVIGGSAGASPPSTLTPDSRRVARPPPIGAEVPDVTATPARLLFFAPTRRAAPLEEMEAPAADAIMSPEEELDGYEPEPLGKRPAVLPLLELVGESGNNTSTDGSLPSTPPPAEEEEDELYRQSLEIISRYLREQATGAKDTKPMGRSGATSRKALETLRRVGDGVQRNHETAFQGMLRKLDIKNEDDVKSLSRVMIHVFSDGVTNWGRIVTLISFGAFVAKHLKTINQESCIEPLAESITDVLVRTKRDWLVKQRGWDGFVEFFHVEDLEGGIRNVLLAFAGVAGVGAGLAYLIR
Genome polyprotein, sequence (P29990 2492-3391 limits assumed): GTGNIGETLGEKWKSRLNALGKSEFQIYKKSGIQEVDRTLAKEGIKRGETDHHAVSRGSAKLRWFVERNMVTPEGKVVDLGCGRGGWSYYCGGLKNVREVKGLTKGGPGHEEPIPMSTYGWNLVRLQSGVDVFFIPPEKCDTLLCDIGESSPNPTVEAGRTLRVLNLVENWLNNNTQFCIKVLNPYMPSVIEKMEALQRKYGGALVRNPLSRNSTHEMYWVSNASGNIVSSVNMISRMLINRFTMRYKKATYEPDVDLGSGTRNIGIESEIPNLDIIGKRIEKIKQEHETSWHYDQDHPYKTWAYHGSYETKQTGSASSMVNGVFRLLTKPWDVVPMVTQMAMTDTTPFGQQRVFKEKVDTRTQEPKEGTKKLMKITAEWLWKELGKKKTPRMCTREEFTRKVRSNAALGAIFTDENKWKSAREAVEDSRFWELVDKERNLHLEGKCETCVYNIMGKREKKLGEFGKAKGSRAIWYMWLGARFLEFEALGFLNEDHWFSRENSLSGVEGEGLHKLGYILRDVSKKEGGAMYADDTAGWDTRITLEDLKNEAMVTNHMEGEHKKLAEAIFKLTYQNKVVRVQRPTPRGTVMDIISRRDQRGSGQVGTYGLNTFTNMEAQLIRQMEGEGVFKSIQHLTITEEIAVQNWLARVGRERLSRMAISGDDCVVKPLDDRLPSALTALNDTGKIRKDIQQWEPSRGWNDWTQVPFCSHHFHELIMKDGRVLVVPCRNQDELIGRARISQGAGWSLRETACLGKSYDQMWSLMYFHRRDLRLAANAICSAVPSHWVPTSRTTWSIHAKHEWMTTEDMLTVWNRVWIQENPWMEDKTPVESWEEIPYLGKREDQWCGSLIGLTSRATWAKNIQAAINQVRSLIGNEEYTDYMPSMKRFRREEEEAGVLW
Aspartyl aminopeptidase, sequence (Q8I2J3 whole entry): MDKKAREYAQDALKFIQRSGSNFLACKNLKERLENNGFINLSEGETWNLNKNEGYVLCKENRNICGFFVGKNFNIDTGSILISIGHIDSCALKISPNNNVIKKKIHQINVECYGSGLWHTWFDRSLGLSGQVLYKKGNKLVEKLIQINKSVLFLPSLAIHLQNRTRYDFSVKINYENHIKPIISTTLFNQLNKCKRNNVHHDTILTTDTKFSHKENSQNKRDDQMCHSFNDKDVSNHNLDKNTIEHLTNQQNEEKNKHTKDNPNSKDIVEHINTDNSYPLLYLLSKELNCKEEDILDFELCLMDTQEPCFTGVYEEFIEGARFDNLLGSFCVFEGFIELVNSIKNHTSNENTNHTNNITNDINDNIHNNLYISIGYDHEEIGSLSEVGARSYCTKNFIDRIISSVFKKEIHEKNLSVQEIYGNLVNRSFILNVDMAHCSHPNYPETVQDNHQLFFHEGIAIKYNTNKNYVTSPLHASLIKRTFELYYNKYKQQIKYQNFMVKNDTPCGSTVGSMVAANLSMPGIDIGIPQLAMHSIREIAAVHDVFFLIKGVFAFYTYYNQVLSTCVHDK
Procathepsin L, sequence (P07711 whole entry): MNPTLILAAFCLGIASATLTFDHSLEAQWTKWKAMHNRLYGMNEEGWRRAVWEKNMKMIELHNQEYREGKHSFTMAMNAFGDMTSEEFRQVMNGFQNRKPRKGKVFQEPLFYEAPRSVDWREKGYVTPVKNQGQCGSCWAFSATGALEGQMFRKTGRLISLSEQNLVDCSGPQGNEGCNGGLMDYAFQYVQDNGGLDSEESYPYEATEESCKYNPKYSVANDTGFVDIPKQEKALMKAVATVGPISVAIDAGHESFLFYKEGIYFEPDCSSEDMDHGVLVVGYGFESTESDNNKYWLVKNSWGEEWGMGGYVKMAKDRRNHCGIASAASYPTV
Melanin-concentrating hormone receptor 1, sequence (Q99705 whole entry): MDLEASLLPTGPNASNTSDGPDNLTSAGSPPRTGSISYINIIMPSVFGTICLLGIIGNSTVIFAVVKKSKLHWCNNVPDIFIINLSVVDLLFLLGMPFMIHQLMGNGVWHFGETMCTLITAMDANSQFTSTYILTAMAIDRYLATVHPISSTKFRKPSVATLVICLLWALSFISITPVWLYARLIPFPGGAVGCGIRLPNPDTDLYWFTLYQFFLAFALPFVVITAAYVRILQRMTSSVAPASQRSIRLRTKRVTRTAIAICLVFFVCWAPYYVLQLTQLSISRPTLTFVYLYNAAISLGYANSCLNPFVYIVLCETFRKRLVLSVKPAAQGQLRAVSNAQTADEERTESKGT

CCn1c2ccccc2c2cc(NC(=O)c3coc(=O)c(Br)c3)ccc21
IC50 [1]: 55.6 µM (inactive)

Cc1ccc2c(c1)c1c(n2CC(O)CNC2CCCCC2)CCCC1 (centres undefined)
CC50 [2]: > 20 µM (active) | CC50 [3]: 12.1 µM (active) | AC50 [4]: 9.21 µM (active) | CC50 [5]: 11.9 µM (active) | IC50 (cells [6]): 33.4 µM (active) | EC50 [7]: 17 µM (active)

CCOc1cc(/C=C2/C(=O)ON=C2C)ccc1OCc1ccc(F)cc1
EC50 [8]: 8.12 µM (active) | EC50 [7]: 16.2 µM (active)

NC(=S)n1nc(-c2ccc([N+](=O)[O-])cc2)c(/N=N/c2cccc(Cl)c2)c1O
IC50 (SUMO-activating enzyme [9]): 51.5 µM (active) | IC50 [10]: 1.44 µM (active) | IC50 (SUMO-activating enzyme [11]): 3.29 µM (active)

CCc1ccccc1N=C(S)Nn1cnnc1
IC50 (Procathepsin L): > 59.6 µM (not active) | IC50 (Aspartyl aminopeptidase): 3.03 µM (active)

CC(C)(C)NN/C=C1\C(=O)N(c2ccc(Cl)cn2)C(=O)c2ccccc21
IC50 [1]: > 100 µM (inactive)

CC(=O)Nc1ccc(S(=O)(=O)Nc2nc3ccccc3nc2Nc2ccc(C(=O)O)c(O)c2)cc1
IC50 [12]: 88.1 µM (inactive) | AC50 (ORF 73): 42.3 µM (active) | IC50 [13]: 166 µM (active) | AC50 (Caspase-6): 13.2 µM (active) | IC50 (Genome polyprotein): > 100 µM (active) | IC50 [14]: > 66.6 µM (inactive)

Cc1ccc(C(=O)c2cccc(N)c2)cc1C
EC50 [15]: 1.11 µM (active) | EC50 [16]: 1.46 µM (active) | EC50 [17]: < 0.1 µM (active) | EC50 [18]: < 0.1 µM (active) | AC50 [19]: 3.62 µM (active) | EC50 (cells [20]): 2.86 µM (active)

Cc1ccccc1N(CC(=O)NC1CCCCC1)C(=O)CCCC(=O)Nc1ccccn1
IC50 [21]: > 43.8 µM (not active) | IC50 [22]: > 43.8 µM (not active)
